Columns and labels:
[1] = system: combinatorial α-synucleinopathy PD mouse model; test: Sporadic PD mouse model, combinatorial PFF and rAAV-αSyn nigral injection, PCiv diet; assay type: in vivo
Method: Figure 4 PCiv administration suppresses PFF-induced dopaminergic neurodegeneration, α-synuclein aggregation, and motor dysfunction in vivo. (A) Bradykinesia (slowness of movement) assessed by pole test for control and combinatorial PFF/AAV-αSyn-injected mice with or without PCiv treatment (50 mg PCiv/kg diet for 30 days, n = 5 per group). Control mice are those nigrally injected with PBS and AAV-GFP. (B) Motor coordination of the mice in the experimental group was assessed by an accelerated rotarod test (n = 5 per group). (C) Representative tyrosine hydroxylase (TH) immunohistochemical staining of the ventral midbrains of control and combinatorial α-synucleinopathy-PD mice fed with a PCiv diet (50 mg/kg diet for 30 days) or normal chow diet. (D) Stereological assessment of TH-positive dopaminergic neurons in the substantia nigra pars compacta of the injection side of the indicated mice groups (n = 5 mice per group). (E) Representative immunofluorescence images of pS129-αSyn and TH in the substantia nigra coronal sections of the indicated experimental mice groups. (F) Quantification of relative pS129-αSyn fluorescence intensities in the TH-positive dopamine neurons of the substantia nigra sections from the indicated experimental groups (n = 28 cells from 3 mice per group). The quantified data are expressed as means ± SEMs. Statistical significance was determined by an ANOVA test with Tukey’s post hoc analysis, ** p < 0.01, *** p < 0.001, and **** p < 0.0001. ns = nonsignificant.
All animal experiments were approved by the Ethical Committee of Sungkyunkwan University Animal Care and Use Committee of Gachon University (Approval number: […]2019-06-15-1; GIACUC-R2021006) and were conducted in accordance with all applicable international guidelines. Male C57BL/6N mice (2 months old) were obtained from Orient Bio (Suwon, Korea). The animals were housed in air-controlled rooms with a 12-h dark/light cycle. Mice and rats were provided ad libitum access to diet and water. All efforts were made to minimize animal suffering and the number of animals used in the experiments. A synthetic PCiv diet was supplied to the mice. The PCiv diet administration (50 mg/kg/day for PFF PD mouse models) began on day 0 and was continued for 30 days. Intranigral injection of the rAAV-αSyn and PFF mixture was performed on day 0. Mice brains were prepared for analysis, as described below. To test the therapeutic effects of PCiv, we prepared a diet containing PCiv. To facilitate each mouse consuming 2 mg of PCiv per day, we generated a mixture of 400 mg of PCiv per kg of rodent diet and then supplied it to the mice.
The α-synucleinopathy PD model was created by co-injecting PFF (10 µg; ventral tegmental area: AP, −3.4 mm; ML, −0.5 mm; DV, −4.3 mm) and rAAV-αSyn (AAV serotype 1, 1 µL of titer 5 × 1011 GC/mL; substantia nigra pars compacta: AP, −3.4 mm; ML, −1.3 mm; DV, −4.3 mm) into a 2-month-old C57BL/6N mouse. rAAV-GFP was used as the control. PFF was prepared from pure recombinant human α-synuclein (Proteos, Inc., Kalamazoo, MI, USA) according to a previous report. Before use, sonicated PFFs were evaluated using Western blotting and a functional assay in cortical neuron cultures (pS129-αSyn induction and neurotoxicity). After co-injecting PFF and rAAV-αSyn, PD models were fed a PCiv or normal diet for a month. For stereological analysis, the animals were perfused 1 month after intranigral injection and fixed intracardially with ice-cold PBS. The tissues were post-fixed with 4% paraformaldehyde overnight. The fixed mice brains were cryoprotected in 30% sucrose (wt/vol) in PBS and subsequently processed for immunohistochemistry.
Coronal sections (thickness, 35 µm) of the fixed and cryoprotected brains were cut, including the substantia nigra. […]

[2] = Dissolution in dosing vehicle; assay type: physicochemical; settings: DMSO:PEG400:saline ratio of 5:70:25
Method: In vivo rat pharmacokinetic studies were performed for intravenous and oral administration of PCiv as previously reported. Sprague-Dawley rats (8 weeks old, 260–280 g) were purchased from Orient Bio Inc. (Seongnam, Korea). Rats were maintained with free access to food and water under a 12:12 h light/dark cycle for 1 week. For pharmacokinetic studies, under anesthetic conditions (20 mg/kg tiletamine/zolazepam [Zoletil; Vibrac Laboratories, Carros, France] administered intramuscularly), the femoral vein and artery were surgically cannulated using polyethylene tubing (PE50; Clay Adams, Parsippany, NJ, USA) in fasted rats. Then, PCiv was administered intravenously and orally at a dose of 10 mg/kg (n = 4–5). The drug was dissolved in a vehicle (DMSO:PEG400:saline at a ratio of 5:70:25). Blood samples (approximately 100 μL) were collected at predetermined time points (0, 1, 5 (intravenous administration only), 15, 30, 60, 120, 180, 240, 360, and 480 min) after drug administration. […] The PCiv level was determined using a CapcellpakTM C18 5 μm column (250 × 1.5 mm, Shiseido Fine Chemical Co., Tokyo, Japan), as previously described. […] The tissue concentration levels were calculated as the PCiv amount (ng) per gram of organ weight.

[3] = set-up: method as in PMID 31689937; settings: intraperitoneal administration in mice; cited from earlier work
[4] = system: 6-OHDA-induced PD mouse model; set-up: method as in PMID 31689937; settings: cited from earlier work
[5] = PD mice, PCiv diet 50 mg/kg diet for 30 days

SMILES	total α-synuclein expression ([1]; PBS+AAV-GFP and PFF+AAV-αSyn injection groups, PCiv diet)	development of motor impairment (pole and rotarod tests) ([1]; PD mice, PCiv diet 50 mg per kg diet, four weeks)	dopaminergic neurons (TH-positive, substantia nigra) [1, 5]	α-synuclein aggregation pathology (pS129-αSyn in TH-positive dopamine neurons) [1, 5]	dopamine neuron viability in control mouse group ([1]; control mice (PBS + AAV-GFP), PCiv diet)	overt toxicity ([1]; in cells and in vivo mouse models)	dissolution in vehicle solution [2]	brain distribution [3]	neuroprotection [4]
C/C=C(\C)C(=O)O[C@H]1[C@H](OC(C)=O)c2c(ccc3ccc(=O)oc23)OC1(C)C (relative stereo) [PCiv, trans-4′-acetyl-3′-tigloylkhellactone]	no alteration	almost completely prevented	marked protection	largely blocked	no effect	did not observe any overt toxicity	well-dissolved		
C/C=C(\C)C(=O)O[C@@H]1c2c(ccc3ccc(=O)oc23)OC(C)(C)[C@H]1OC(C)=O (relative stereo) [PCiii, peucedanocoumarin III]								demonstrated brain distribution	neuroprotective
